Source: patent US20030032581A1, “Pharmaceuticals for treating obesity” (priority 1999, published 2003)
Marks after values point to notes of the source that are not given here.

Columns and labels:
[1] = test system: ob/ob mice; assay: ob/ob mice, plasma insulin; format: in vivo; details: once daily dosing
Source text: The PPAR-gamma antagonists/partial agonists are therefore effective in treating the obesity and other symptoms that generally occur in non-insulin dependent diabetes, such as elevated levels of glucose, triglycerides, and insulin in the plasma.

[2] = test system: fat-fed C57BL/6J mice; assay: Fat-fed C57BL/6J mice, obesity and metabolic parameters; format: in vivo; details: HF diet + 50 mg/kg/day
Method: At the end of that time the animals had gained 16g, 22 g and 20.5 g, respectively (FIG. 3). […] Analysis of whole body triglyceride content and protein content were performed as described in Moller et al (Endocrinology 137:2397-2405, 1996). […] Thus, treatment with the PPARγ antagonist caused relative decreases in body adiposity and increases in lean body mass in fat fed mice. The plasma levels of glucose, triglycerides and free fatty acid levels were all increased in the HF group relative to the LF group (see Table below).

[3] = test system: 3T3-L1 cells; assay: 3T3-L1 preadipocyte differentiation (aP2 expression); format: cell-based; details: Mus musculus, 3T3-L1, 120 h; 100 nM rosiglitazone, 5 days; read-out: IC50, block of rosiglitazone stimulated aP2 expression
Method: 3T3-L1 cells were obtained from American Type Culture Collection. Passage numbers 3 to 9 were used in all the studies. Monolayer fibroblasts were maintained in medium A (Dulbecco's modified Eagle's medium with 10% fetal calf serum, 100 units/ml penicillin, and 100 μg/ml streptomycin) at 37° C. in 5% CO2. […] Total RNA was prepared using Ultraspec™ RNA isolation system (Biotecx, Houston, Tex.). RNA concentration was quantitated by absorbance at 260 nm. Equal amount of RNA samples were denatured in formamide/formaldehyde and applied to Hybond™-N membranes (Amersham) using a slot blot apparatus (BioRad). Prehybridization was performed at 42° C. for 1-3 h in 40-50% formamide in a solution containing 25 mM sodium phosphate, pH 7.4, 0.9 M sodium chloride, 50 mM sodium citrate, 0.1% each of gelatin, ficoll, and polyvinylpyrollidone, 0.5% SDS, and 100 μg/ml denatured salmon sperm DNA. Hybridization was carried out at the same temperature for 20h in the same solution with ^32P-labeled aP2 cDNA probe (2×10^6 cpm/ml). After washing the membranes under appropriately stringent conditions, the hybridization signals were analyzed with a Phosphorlmager (Molecular Dynamics).

For `O=C(O)c1c(Sc2ccccc2)c2cc(Cl)ccc2n1Cc1ccc(Cl)cc1` [Compound I, 1-(p-chlorobenzyl)-5-chloro-3-thiophenylindole-2-carboxylic acid], the “reduction in elevated levels of mean plasma insulin” value [1] was 30-50%, the body weight gained ([2]; 72 days) was 20.5 g and the “Plasma free fatty acids” value ([2]; mean +/- SE of 10 mice) was 0.536 +/− 0.02* mM. For the same compound, the Plasma glucose ([2]; mean +/- SE of 10 mice) was 145.6 +/− 4.1* mg/dl, the Plasma triglycerides ([2]; mean +/- SE of 10 mice) was 71.4 +/− 4.1** mg/dl and the Serum insulin ([2]; mean +/- SE of 10 mice) was 1.35 ± 0.21 ng/mL. For the same compound, the IC50 [3] was about 300 nM.
